# From PubChem BioAssay (NCI)
# Values joined by “and” are separate entries in the source; they are usually repeats but may differ in a detail not shown here. Identical values can stand only once.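 Following 48 hours of exposure in 96-well plates, responses at five concentrations were used to interpolate endpoints linearly. GI50 is the concentration that inhibits growth by half. TGI: total growth inhibition.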
# Experiments:
# Assay in all cases: inhibition of tumour cell growth, NCI panel, 48 h
# [1] = test system: A549 NSCLC
# [2] = test system: EKVX NSCLC
# [3] = test system: HCT-15 colon
# [4] = test system: MALME-3M melanoma
# [5] = test system: NCI-H226 lung
# [6] = test system: NCI-H23 lung
# [7] = test system: OVCAR-8 ovarian
# [8] = test system: RPMI-8226 leukemia
# [9] = test system: U251 CNS
# [10] = test system: UACC-62 melanoma
SMILES,GI50 [1],TGI [1],GI50 [2],TGI [2],GI50 [3],TGI [3],GI50 [4],TGI [4],GI50 [5],TGI [5],GI50 [6],TGI [6],GI50 [7],TGI [7],GI50 [8],TGI [8],GI50 [9],TGI [9],GI50 [10],TGI [10]
O=C(NCCCl)NCCN1c2nc3ccccc3cc2Sc2cc3ccccc3nc21,4.64 µM,23.1 µM,3.45 µM,> 44.1 µM,2.74 µM,> 40 µM,0.968 µM,15.4 µM,1.82 µM,19 µM,1.43 µM,> 45.6 µM,3.03 µM,20.8 µM,0.245 µM,1.64 µM,1.93 µM,12.3 µM,1.62 µM,18.2 µM
COc1cc(-c2cc(-c3cccs3)c(C#N)c(N3CCOCC3)n2)cc(OC)c1OC,44.1 µM,> 100 µM,24.2 µM,> 100 µM,3.09 µM,> 100 µM,3.66 µM,> 100 µM,20.5 µM,> 100 µM,> 52.1 µM,> 100 µM,> 30.4 µM,> 100 µM,4.07 µM,> 85.7 µM,4.94 µM,> 100 µM,7.57 µM,> 100 µM
CC(=O)NC(CS)C(=O)O (stereo not given),> 100 µM,> 100 µM and 69600 µM,> 100 µM,> 100 µM and 87600 µM,> 100 µM,> 100 µM and 47600 µM,> 100 µM,> 100 µM and 54500 µM,> 100 µM,> 100 µM and 45000 µM,> 100 µM,> 100 µM and 62700 µM,> 100 µM,> 100 µM and 88800 µM,> 100 µM,> 100 µM and 3720 µM,> 100 µM,> 100 µM,> 100 µM,> 100 µM
O=C(O)CCC(=O)Oc1ccc(O)c2c1CCCC2=O,,> 100 µM,,> 100 µM,,> 100 µM,,> 100 µM,,> 100 µM,,> 100 µM,,> 100 µM,,> 100 µM,,> 100 µM,,> 100 µM
